Experiment: Fluorescence intensity of NBD-GGBP-CMC in presence and absence of glucose
Type: biochemical
Conditions: 100 nM preparation, 20 mM glucose; FIG. 6
Protocol: Covalent attachment was performed by activating carboxymethyl groups on the hydrogel polymer (CMC) with a mixture of N-hydroxysuccinimide (NHS) and N-ethyl-N′-(dimethylaminopropyl) carbodiimide (EDC). This forms an intermediate that is reactive to amines. NHS (100 mM) and EDC (400 mM) in water were mixed in a 1:1 vol:vol ratio. An equal volume of hydrogel polymer (25 mg/mL CMC in H2O) and the EDC/NHS mixture were combined, and incubated at room temperature for 15 to 30 minutes. The unreacted EDC and NHS were removed from the hydrogel polymer by eluting the polymer from a NAP-5 column. Varying amounts of activated hydrogel polymer were combined with the fluorescently-labeled GGBP (in this example, the NBD-A213C/L238C-GGBP-His6 mutant). The activated hydrogel polymer and protein were gently mixed, at room temperature, for 1 to 2 hours. […] An absorbance scan of solution not retained by the 100 kDa filter indicated no unattached protein remained. […] Activity of the NBD-GGBP-CMC was determined by fluorescence intensity measurement of the NBD-GGBP-CMC in the presence of high concentration glucose (20 mM) and in the absence of glucose. Thus, 100 nM preparations of the NBD-GGBP-CMC, as well as unattached NBD-GGBP (control) were measured before and after the addition of glucose (FIG. 6). […]

NBD-GGBP-CMC: NBD-labeled GGBP randomly covalently attached to carboxymethyl cellulose hydrogel polymer via EDC/NHS
signal in the presence of glucose compared to the absence of glucose: strong signal
